For orientation: IC50 means the concentration that gives 50% inhibition.

The target of this test is melatonin receptor. As to the kind of experiment: Inhibition of 2-[125I]iodomelatonin binding (forebrain membrane homogenate). The arrangement: species or system chicken (white leghorn). Conditions: forebrains of 7-day-old chicken; 80 pM 2-[^125I]iodomelatonin; 90 minutes at 25°C; non-specific binding with 10^-5M melatonin; log-probit analysis; read-out: IC50 (nM), Action of inhibiting 2-[^125I]iodomelatonin binding. How it is done: Inhibition of 2-[^125I]iodomelatonin binding activity
The forebrains of 7-day-old chicken (white leghorn) were homogenized with ice-cold assay buffer (50 mM Tris-HCl, pH 7.7 at 25°C) and centrifuged at 44,000 x g for 10 minutes at 4°C. The pellet was washed once with the same buffer and storred at -30°C until use. For the assay, the frozen tissue pellet was thawed and homogenized with the assay buffer to make a protein concentration of 0.3 - 0.4 mg/ml. An 0.4 ml aliquot of this homogenate was incubated with a test compound and 80 pM 2-[^125I]iodomelatonin in a total volume of 0.5 ml for 90 minutes at 25°C. The reaction was terminated by adding 3 ml of ice-cold assay buffer immediately followed by vaccum filtration on Whatman GF/B which was further washed twice with 3 ml of ice-cold assay buffer. The radioactivity on the filter was determined by means of γ-counter. […] The 50% inhibiting concentration (IC50) was determined by the log-probit analysis.

As to `CCCC(=O)NCCc1c[nH]c2ccc3c(c12)CCCO3` [Example 5, N-[2-(3,7,8,9-tetrahydropyrano[3,2-e]indol-1-yl)ethyl]butyramide], the IC50 was 0.082 nM. For `CCC(=O)NCCc1c[nH]c2ccc3c(c12)CCCO3` [Example 4, N-[2-(3,7,8,9-tetrahydropyrano[3,2-e]indol-1-yl)ethyl]propionamide], the IC50 worked out at 0.13 nM. Regarding `CCCC(=O)NCCC1CNc2ccc3c(c21)CCCO3` (stereo not drawn) [Example 8, N-[2-(1,2,3,7,8,9-hexahydropyrano[3,2-e]indol-1-yl)ethyl]butyramide], the IC50 was found to be 0.22 nM. As for `CCC(=O)NCCC1CNc2ccc3c(c21)CCCO3` (stereo not drawn) [Example 7, N-[2-(1,2,3,7,8,9-hexahydropyrano[3,2-e]indol-1-yl)ethyl]propionamide], the IC50 was 0.46 nM. Turning to `CCC(=O)NCC[C@@H]1CCc2ccc3c(c21)CCO3` [Example 11, (S)-N-[2-(1,6,7,8-tetrahydro-2H-indeno[5,4-b]-furan-8-yl)ethyl]propionamide], the IC50 stood at 0.048 nM.

On to `CCCC(=O)NCCC1=CCc2ccc3c(c21)CCO3` [Example 16, N-[2-(1,6-dihydro-2H-indeno[5,4-b]furan-8-yl)-ethyl]butyramide], for which the IC50 was 0.095 nM. For `CCC(=O)NCCC1=CCc2ccc3c(c21)CCO3` [Example 15, N-[2-(1,6-dihydro-2H-indeno[5,4-b]furan-8-yl)-ethyl]propionamide], the IC50 was determined as 0.1 nM. For `CC(=O)NCCC1=CCc2ccc3c(c21)CCO3` [Example 14, N-[2-(1,6-dihydro-2H-indeno[5,4-b]furan-8-yl)ethyl]acetamide] the value was 0.24 nM.

As to `CCC(=O)NCCC1CCc2ccc3c(c21)CCO3` (stereo not drawn) [Example 2, N-[2-(1,6,7,8-tetrahydro-2H-indeno[5,4-b]furan-8-yl)ethyl]propionamide], the IC50 was 0.13 nM. With `CC(=O)NCCC1CCc2ccc3c(c21)CCO3` (stereo not drawn) [Example 1, N-[2-(1,6,7,8-tetrahydro-2H-indeno[5,4-b]furan-8-yl)ethyl]acetamide] the figure was 0.28 nM; with `CCCC(=O)NCCC1CCc2ccc3c(c21)CCO3` (stereo not drawn) [Example 13, N-[2-(1,6,7,8-tetrahydro-2H-indeno[5,4-b]furan-8-yl)ethyl]butyramide], 0.12 nM; with `CC(=O)NCCc1c[nH]c2ccc3c(c12)CCCO3` [Example 3, N-[2-(3,7,8,9-tetrahydropyrano[3,2-e]indol-1-yl)ethyl]acetamide], 0.46 nM.

For the origin of these results see patent EP1199304A1, “Bicyclic compounds and pharmaceutical composition containing tricyclic compound for treating or preventing sleep disorders” (Takeda Chemical Industries, Ltd., priority 1997, dated 1997).
